Experimental data taken from patent publication US20260327239A1, “COMPOUNDS FOR COVALENT INHIBITION OF SHP2” (Purdue Research Foundation, priority 2023, published 2026).
Entries after “also recorded” stand apart in the source; their conditions may differ. Like-named read-outs stand apart in the source and are kept apart here.

How the values were obtained:
[1] = target: T1, SHP2 (residues 224-528) (Homo sapiens, UniProt Q06124); test: Kinetic characterization of SHP2 inactivation (pNPP cleavage progress curves, kobs, kinact/KI); type: biochemical; details: for kinact/KI / KI (inactivation) / kinact: substrate pNPP 3 mM, 100 nM SHP2, pH 7.0, 25° C; for fold decrease in efficacy: comparator not given
T1 construct: 4× solution of SHP2 (residues 224-528)
T1 sequence (Q06124 224-528): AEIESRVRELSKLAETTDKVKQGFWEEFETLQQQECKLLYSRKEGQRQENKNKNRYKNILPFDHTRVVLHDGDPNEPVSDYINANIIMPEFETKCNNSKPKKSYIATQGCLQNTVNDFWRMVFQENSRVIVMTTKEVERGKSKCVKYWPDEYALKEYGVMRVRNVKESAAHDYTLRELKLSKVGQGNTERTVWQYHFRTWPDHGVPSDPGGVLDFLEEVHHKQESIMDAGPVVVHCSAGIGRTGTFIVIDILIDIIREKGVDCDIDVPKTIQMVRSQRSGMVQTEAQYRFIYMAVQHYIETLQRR
Description: Covalent inhibitors work by forming a covalent bond with a reactive functional group in the target enzyme. Consequently, the kinetics for enzyme inactivation by a covalent inhibitor is not an equilibrium process as with reversible inhibition. The potency of a reversible inhibitor can be measured by its IC50 value. Unlike reversible inhibitors, where inhibition is only concentration-dependent, covalent inhibitors show both time- and concentration-dependent target inhibition (a covalent bond formation is a time-dependent event). If sufficient time is available, covalent inhibitors can completely neutralize the target, rather than go to equilibrium. As a result, the potency and selectivity of a covalent inhibitor cannot be determined by IC50 values; instead, the rate of inactivation of the target (kinact) and the inhibition constant (KI) were determined. The bimolecular rate constant (kinact/KI), was chosen to rank the potency of covalent inhibitors (Ruddraraju et al., 2017, Molecular Biosystems 13(7), 1257-1279).
PTPs catalyze the dephosphorylation of tyrosine-phosphorylated protein substrates through a conserved mechanism that relies on a catalytic cysteine residue (Zhang, Z.-Y et al., 2003, Prog. Nucleic Acid Research Molecular Biology, 73, 171-220). This provides a mechanistic rationale for the assessment of electrophilic Michael acceptors, such as those synthesized in the present disclosure as potential covalent inhibitors of the SHP2. The enzymatic cleavage of para-nitrophenyl phosphate by SHP2 was measured over time in the presence of 100 μM inhibitor or DMSO, to determine the observed first-order rate constant (kobs). Based on kobs values, compounds were further evaluated in a dose-dependent manner to determine the second-order rate constant (kinact/KI) indicating the overall efficacy of the compounds, which was used to assess the structure-activity relationship (SAR) for the analogs of interest and design additional analogs (see Table 1). […] It has been known that modifications to the electronegativity of substituents proximal to electrophilic centers alter the reactivity of the electrophile.
The efficacy of covalent inhibitors can be broken down into the initial reversible binding of the compounds (KI), and the rate of covalent bond formation and enzyme inactivation (kinact). These two constants can be used individually, or as a ratio to determine the overall efficacy of the inhibitor's efficacy. To investigate the contribution to reversible binding compound (34) was evaluated, which lacks the carbonyl of the Michael acceptor to prevent the formation of a covalent adduct.
Inhibitors were evaluated for their ability to inhibit the reaction catalyzed by SHP2 using para-nitrophenyl phosphate (pNPP) as a substrate at pH 7 and 25° C. A 2× solution of inhibitor was diluted into DMG buffer (50 mM 3,3-dimethylglutarate pH 7.0, 1 mM EDTA, ionic strength adjusted to 150 mM using NaCl) was added to a clear flat-bottom 96-well plate (Corning Costar Assay Plate #9017), and serially diluted 1.5-fold, resulting in 100 μL volumes of varying inhibitor concentrations. To this was added a 4× solution of pNPP (12 mM) in DMG buffer. The reaction was initialized by the addition of a 4× solution of SHP2 (residues 224-528), resulting in a final solution of: inhibitor (100-0 μM), pNPP (3 mM), and SHP2 (100 nM). The plate was then monitored for a change in absorbance ab […] using a CLARIOstar^Plus plate reader (BMG Labetch) over the course of an hour. The resulting progress curves for each inhibitor were imported into Graphpad Prism 9 (GraphPad Software, San Diego, CA (USA)), and a baseline correction analysis was completed for fitting purposes. Each curve was fit to the equation Y=V0×(1−e^−kobs*t)/kobs.^[17.22] The kobs values were then plotted against inhibitor concentrations. If the resulting graph was linear, the kinact/KI value was determined by the slope of that line and the 95% confidence interval (95% CI). […]

[2] = target: T2, SHP2 (Homo sapiens, UniProt Q06124); test: Covalent adduct formation on SHP2 by intact protein LC-MS; type: binding; details: 10 μM SHP2, 60 minutes; for Found Ligand Adduct (mass shift): intact protein LC-MS; for % SHP2 Reacted (overall adduct formation): PVSN at 20 μM, compound 37 at 10 μM
T2 construct: 4× solution of SHP2 (residues 224-528)
T2 sequence (Q06124 224-528): T1 sequence (Q06124 224-528)
Description: To validate covalent modification of SHP2 by the active compounds, adduct formation on SHP2 was measured by intact protein liquid chromatography-mass spectrometry (LC-MS). With intact protein LC-MS, multiply charged states of the protein species can be deconvoluted to achieve the total mass(es). Compounds were incubated with 10 μM SHP2 for 60 minutes before being quenched with acetonitrile for LC-MS analysis by electrospray ionization (ESI) in positive mode. […] (33), and (42) (FIGS. 3A and 3B).
To unfold protein and quench protein-ligand reactivity, 10 μL of treated or untreated 10 μM SHP2 was diluted in 40 μL of 80% (v/v) formic acid initially, followed by 150 μL of LC-MS buffer (50/50 water/acetonitrile with 0.1% formic acid). 20-25 pmol per sample was analyzed by LC/MS (Agilent 1260 Infinity II with a ZORBAX Rapid Resolution High Definition 300 Å Stable Bond C3, 2.1×100 mm, 1.8 μm column) attached to an Agilent 6129 quadrupole mass spectrometer in positive ion mode. The column was held at 45° C. Mobile solution A was 0.1% formic acid in water, and mobile phase B was 0.1% formic acid in acetonitrile. The gradient used was hold at 10% B for 5 min, increase linearly to 80% B for 15 min, and then hold at 80% B for 5 min. The mass data were collected at a range of 600-1500 m/z. Raw data were processed using MestReNova. For all samples, the deconvoluted mass was calculated by taking the m/z range of 730-1100 Da, and deconvoluted mass range from 36500-37200 Da. An abundance threshold of 10% and tolerance of 30 ppm was set for deconvolution. Unreacted SHP2's total deconvoluted mass was 36602±10 Da; for each deconvolution, the highest deconvoluted mass intensity was utilized as the mass pivot point to determine and identify reacted SHP2 adducts. To calculate the percent SHP2 reacted, the relative abundance intensity of reacted SHP2 was divided by the total relative abundance intensities of unreacted and reacted SHP2.

[3] = pH 7, role: inhibitor, read-out: kinact/KI (converted)

| Compound | kinact/KI [1, 3] | SHP2 inhibition efficacy (in words) ([1]; role: inhibitor) | other results |
| --- | --- | --- | --- |
| C=C1C(=O)[C@@]2(C(=O)NCCC)CC(=O)C[C@@H]1C2 [Compound 11] | 14.3 M⁻¹ s⁻¹ | slightly less potent than compound (10) | kinact/KI ([1]; role: inhibitor): 865.8 M^−1Min^−1 |
| C=C1C(=O)[C@@]2(C(=O)N(CC)CC)CC(=O)C[C@@H]1C2 [Compound 12] | 17.5 M⁻¹ s⁻¹ | more effective than compound (11) and the cyclic matched molecular pair (MMP) compound (17) |  |
| C=C1C(=O)[C@@]2(C(=O)N3CCCC3)CC(=O)C[C@@H]1C2 [Compound 17] | 13.4 M⁻¹ s⁻¹ |  |  |
| C=C1C(=O)[C@@]2(C(=O)N3CCCCC3)CC(=O)C[C@@H]1C2 [Compound 19] | 19.4 M⁻¹ s⁻¹ |  |  |
| C=C1C(=O)[C@@]2(C(=O)N3CCCCCC3)CC(=O)C[C@@H]1C2 [Compound 20] | 22.7 M⁻¹ s⁻¹ |  |  |
| C=C1C(=O)[C@@]2(C(=O)N3CCOCC3)CC(=O)C[C@@H]1C2 [Compound 21] | 16 M⁻¹ s⁻¹ |  | fold decrease in efficacy ([1]; role: inhibitor): ~2 fold |
| C=C1C(=O)[C@@]2(C(=O)N3CC4(COC4)C3)CC(=O)C[C@@H]1C2 [Compound 22] | 12.9 M⁻¹ s⁻¹ |  | fold decrease in efficacy ([1]; role: inhibitor): ~2 fold |
| C=C1C(=O)[C@@]2(C(=O)N3CCC(F)(F)CC3)CC(=O)C[C@@H]1C2 [Compound 23] | 36.8 M⁻¹ s⁻¹ | more effective SHP2 inhibitor | kinact/KI ([1]; role: inhibitor): 2,026.8 M^−1Min^−1 |
| C=C1C(=O)[C@@]2(C(=O)N3CCN(C(=O)OC(C)(C)C)CC3)CC(=O)C[C@@H]1C2 [Compound 25] | 28.1 M⁻¹ s⁻¹ | able to inhibit the catalytic activity of SHP2 |  |
| C=C1C(=O)[C@@]2(C(=O)N3CCN(C(C)=O)CC3)CC(=O)C[C@@H]1C2 [Compound 26] | 15.4 M⁻¹ s⁻¹ | able to inhibit the catalytic activity of SHP2 |  |
| C=C1C(=O)[C@@]2(C(=O)N3CCN(c4ccccc4)CC3)CC(=O)C[C@@H]1C2 [Compound 30] | 39.6 M⁻¹ s⁻¹ | small improvement in efficacy |  |
| C=C1C(=O)[C@@]2(C(=O)N3CCN(c4ccccc4C#N)CC3)CC(=O)C[C@@H]1C2 [Compound 32] | 367 M⁻¹ s⁻¹ |  | fold improvement in efficacy over the unsubstituted piperidine analog (19) ([1]; role: inhibitor, kinact/KI relative to 19): approximately 19 fold; fold increase in efficacy relative to the unsubstituted phenyl ring ([1]; role: inhibitor, kinact/KI relative to unsubstituted phenyl): 9.25 fold |
| C=C1C(=O)[C@@]2(C(=O)N3CCN(c4ccc(Br)cc4)CC3)CC(=O)C[C@@H]1C2 [Compound 33] | 367 M⁻¹ s⁻¹ |  | KI (inactivation) ([1]; role: inhibitor): 69.7 µM; kinact ([1]; role: inhibitor): 0.0219 s⁻¹; Found Ligand Adduct (mass shift) [2]: 412 Da; % SHP2 Reacted (overall adduct formation) [2]: 30% |
| C=C1CC2(C(=O)N3CCN(c4ccc(Br)cc4)CC3)CC(=O)CC1C2 (stereo not drawn) [Compound 34] |  | complete loss of SHP2 inhibition efficacy; also recorded: inactive against SHP2; also recorded: complete loss of activity |  |
| C=C1C(=O)[C@@]2(C(=O)N3CCN(c4ccc(F)cc4)CC3)CC(=O)C[C@@H]1C2 [Compound 35] | 97.6 M⁻¹ s⁻¹ |  | KI (inactivation) ([1]; role: inhibitor): 112 µM; kinact ([1]; role: inhibitor): 0.0109 s⁻¹ |
| C=C1C(=O)[C@@]2(C(=O)N3CCN(c4ccc(Cl)cc4)CC3)CC(=O)C[C@@H]1C2 [Compound 36] | 220 M⁻¹ s⁻¹ |  |  |
| C=C1C(=O)[C@@]2(C(=O)N3CCN(c4ccc(C)cc4)CC3)CC(=O)C[C@@H]1C2 [Compound 38] | 101 M⁻¹ s⁻¹ |  | KI (inactivation) ([1]; role: inhibitor): 176 µM; kinact ([1]; role: inhibitor): 0.0172 s⁻¹ |
| C=C1C(=O)[C@@]2(C(=O)N3CCN(c4ccc(OC)cc4)CC3)CC(=O)C[C@@H]1C2 [Compound 39] | 46.5 M⁻¹ s⁻¹ |  |  |
| C=C1C(=O)[C@@]2(C(=O)N3CCN(c4ccc(C(C)(C)C)cc4)CC3)CC(=O)C[C@@H]1C2 [Compound 40] | 291 M⁻¹ s⁻¹ |  |  |
| C=C1C(=O)[C@@]2(C(=O)N3CCN(c4ccc(-c5ccccc5)cc4)CC3)CC(=O)C[C@@H]1C2 [Compound 41] | 311 M⁻¹ s⁻¹ |  | KI (inactivation) ([1]; role: inhibitor): 10.2 µM; kinact ([1]; role: inhibitor): 0.00317 s⁻¹ |
| C=C1C(=O)[C@@]2(C(=O)N3CCN(c4ccc(C(F)(F)F)cc4)CC3)CC(=O)C[C@@H]1C2 [Compound 42] | 417 M⁻¹ s⁻¹ |  | fold increase in efficacy over compound 11 ([1]; role: inhibitor, kinact/KI relative to 11): 29 fold; fold increase in efficacy compared to PVSN ([1]; role: inhibitor, kinact/KI relative to PVSN): 119 fold; KI (inactivation) ([1]; role: inhibitor): 47.8 µM; kinact ([1]; role: inhibitor): 0.0199 s⁻¹; Found Ligand Adduct (mass shift) [2]: 410 Da; % SHP2 Reacted (overall adduct formation) [2]: 43% |
| C=CS(=O)(=O)Oc1ccccc1 [PVSN, phenyl vinyl sulfonate, reference compound] | 3.52 M⁻¹ s⁻¹ |  | % SHP2 Reacted (overall adduct formation) [2]: 21% |
